Here are results for eight compounds from patent publication US5344846A, “Compositions and methods for inhibiting deoxyhypusine synthase and the growth of cells” (The United States of America as represented by the …, priority 1992, dated 1994).

For data set [1], the target named is T1, deoxyhypusine synthase from rat testis (Rattus norvegicus, UniProt Q6AY53).
T1 construct: as catalyzed by deoxyhypusine synthase from rat testis; from tissue; host or cells: rat testis
T1 sequence (Q6AY53 1-369): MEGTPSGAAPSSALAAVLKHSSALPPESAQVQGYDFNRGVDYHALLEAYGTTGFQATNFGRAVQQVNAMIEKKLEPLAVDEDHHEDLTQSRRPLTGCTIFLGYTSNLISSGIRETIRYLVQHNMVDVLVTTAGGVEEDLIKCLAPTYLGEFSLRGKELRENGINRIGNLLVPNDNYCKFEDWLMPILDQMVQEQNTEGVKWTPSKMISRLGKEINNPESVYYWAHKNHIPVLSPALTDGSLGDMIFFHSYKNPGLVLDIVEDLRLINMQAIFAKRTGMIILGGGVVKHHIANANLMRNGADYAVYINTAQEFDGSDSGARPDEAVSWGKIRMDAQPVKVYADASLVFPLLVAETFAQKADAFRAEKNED
Put plainly: Inhibition of deoxyhypusine synthase ([3H]deoxyhypusine formation from [3H]spermidine), IC50/Ki. The data set is classed as biochemical. To be noted: for relative inhibitory potency (in words): comparison with parent amine, bisguanylated counterpart or another inhibitor; for inhibition of deoxyhypusine synthase (in words): pH 9.3, 37° C., 1 hour, 2.4 μM [3H]spermidine. The protocol:
The enzyme assay was performed as previously described (see Wolff et al. (1990) J. Biol. Chem. 265:4793-4799; and Park et al. (1991) J. Biol. Chem. 266:7988-7994). A typical assay mixture included 0.2M glycine, 1 mM dithiothreitol, 0.5 mM NAD^+, 2.4 micromolar (μM) [1,8-^3 H] spermidine, 1 μM ec-eIF-5A(Lys), 25 micrograms (μg) bovine serum albumin, and 3-15 units of enzyme in a total volume of 20 microliters (μl). Incubations were carried out at pH 9.3 and 37° C. for 1 hour. […] Percent inhibition was plotted versus log inhibitor concentration in order to obtain graphic estimates of IC50 values, i.e., the concentrations inhibiting [^3 H]deoxyhypusine production by 50%. The IC50 values reported in the tables were calculated by fitting the data points to equation 1 where x=% inhibition and I is the inhibitor concentration. [formula] The nature of the inhibition was determined by plotting reciprocal velocities of [^3 H]deoxyhypusine production against reciprocals of [^3 H]spermidine concentrations at a constant fixed level of ec-eIF-5A(Lys) (1 μM) and at set inhibitor concentrations. […] Estimates of Ki values were made by fitting the data to equation 2; wherein v is the velocity of the reaction, V is the maximum velocity, S is the substrate concentration, Km is Michaeli's constant, Ki is the inhibition constant, and I is the inhibitor concentration. [formula] All fits were performed by means of an interactive curve-fitting program, MLAB, developed and modified at the National Institutes of Health to run on an IBM personal computer.

The target of data set [2] is T2, deoxyhypusine synthase (Rattus norvegicus, UniProt Q6AY53).
T2 construct: full-length homotetramer; substrate was human eIF-5A precursor expressed in E. coli
T2 sequence (Q6AY53 1-369): T1 sequence (Q6AY53 1-369)
Briefly: Substrate property for deoxyhypusine synthase. Type of data set: biochemical. Particulars: conditions similar to those for N-(3-aminopropyl)cadaverine. The protocol:
(See Wolff et al. (1990) J. Biol. Chem. 265:4793-4799.) The Km(app) values for the substrates, spermidine, NAD^+ and eIF-5A precursor from spermidine-depleted CHO cells, have been calculated as approximately 4, 30, and 0.08 μM, respectively.
This finding is consistent with the conclusion that this lysine is the only one in the precursor that is converted to hypusine, both in cells and in the enzyme reaction in vitro.

Data set [3] deals with pea seedling diamine oxidase. To be noted: cited from earlier work.
The test system of data set [4] is oat seedling polyamine oxidase. Particulars: cited from earlier work.
The subject of data set [5] is deoxyhypusine synthase. Particulars: cited from earlier work.
In data set [6] the target is T1, deoxyhypusine synthase from rat testis. To be noted: cited from earlier work.
Data set [7] has as its target T2, deoxyhypusine synthase. Particulars: earlier publications; cited from earlier work.
Data set [8] deals with deoxyhypusine synthase from HTC cells. To be noted: cited from earlier work; for inhibition of deoxyhypusine synthase: 20 μM inhibitor, 1 μM spermidine, precursor from DFMO-treated HTC cells.
For data set [9] the following is noted: cited from earlier work.

Entries after “also recorded” stand apart in the source; their conditions may differ.

Regarding `N=C(N)NCCCCNCCCN` [Compound 52, N^8 -guanylspermidine], in data set [1], the “relative inhibitory potency (in words)” value is reported as “exceeded bisguanylated spermidine (compound 53) as inhibitors; also recorded: uniformly more efficient inhibition; also recorded: somewhat more effective inhibitor than N^1 -guanylspermidine (compound 51)” and the “inhibition of deoxyhypusine synthase (in words)” value (from here on “inhibition … (in words)”) is given as “high affinities for the enzyme”. Moreover, the “substrate property for deoxyhypusine synthase” value at deoxyhypusine synthase [2] is recorded as “Neither displayed any detectable substrate property; also recorded: If it were, it would function as a substrate which it does not”.
Regarding `N=C(N)NCCCCCCCCNCCCCCCCCNC(=N)N` [Compound 40, guazatine], the “inhibition of pea seedling diamine oxidase” value in [3] is “known to inhibit”. In data set [4], the “inhibition of oat seedling polyamine oxidase” value is reported as “known to inhibit”. Moreover, the “inhibition of deoxyhypusine synthase (literature)” value in the data set on deoxyhypusine synthase [5] is listed as “strong inhibitor”.
As for “16-membered peptide: modeled on residues 40-55 of the human eIF-5A precursor protein and encompassing Lys^50 (IVEMSTSKTGKHGHAK; UniProt P63241 40-55, looked up, fragment)”, in data set [6], the “inhibition by precursor-related peptide” value was “only weak inhibition”. Further, the “substrate or cofactor function for deoxyhypusine synthase” value with deoxyhypusine synthase [7] was “failed to act as a substrate”.
On to `NCCCNCC(F)(F)CCN` [Compound 37, 6,6-difluorospermidine], for which, in [1], the “inhibition … (in words)” value is on record as “quite strong inhibitors; also recorded: effective inhibition; also recorded: act as inhibitors”. Further, in data set [8], the “inhibition of deoxyhypusine synthase” value is listed as 90%. Moreover, the “Ki (in words)” value in [8] (HTC cell enzyme) was “very close to that for 1,3-diaminopropane and to the Km value for spermidine”. In addition, in data set [9], the “pKa of N1-amino group” value is on record as 10.34 and the “pKa of N8-amino group” value is 9.29.
Turning to `NCCCNCCC(F)CN` (stereo not drawn) [7-monofluorospermidine], in [8], the “inhibition of deoxyhypusine synthase” value is listed as 35%.
As to `NCCCNCCC(F)(F)CN` [Compound 38, 7,7-Difluorospermidine], the “inhibition … (in words)” value in data set [1] is given as “devoid of inhibitory activity; also recorded: no inhibition”. Also, the “inhibition of deoxyhypusine synthase” value in data set [8] is listed as 0%. For the same compound, the “pKa of N8-amino group” value in data set [9] is recorded as 6.64.
For `NCCCNCC(F)CCN` (stereo not drawn) [Compound 36, 6-fluorospermidine], in data set [1], the “inhibition … (in words)” value is listed as “quite strong inhibitors; also recorded: effective inhibition; also recorded: act as inhibitors”. In addition, in data set [8], the “inhibition of deoxyhypusine synthase” value is 86%. For the same compound, in data set [9], the “pKa of N1-amino group” value is given as 10.40 and the “pKa of N8-amino group” value is given as 9.55.
Turning to `N=C(N)NCCCNCCCCN` [Compound 51, N^1 -guanylspermidine], in data set [1], the “relative inhibitory potency (in words)” value is on record as “exceeded bisguanylated spermidine (compound 53) as inhibitors; also recorded: uniformly more efficient inhibition” and the “inhibition … (in words)” value was “high affinities for the enzyme”. Further, the “substrate property for deoxyhypusine synthase” value on deoxyhypusine synthase [2] is “Neither displayed any detectable substrate property”.
